Series [1] deals with male ICR mice. Briefly: Mouse tail suspension model. It is filed as in vivo. The conditions noted are these: immobility time. The procedure:
110 male ICR mice were accommodated in the experimental environment for 3 days prior to the test, with 10 animals reserved for future use.
According to the experimental design, the mice were randomly grouped according to their body weight at one day before administration.
The time of initiation of administration was defined as 0 min.
The 2 cm tail end of the mouse was attached to a horizontal metal stick so that the mouse was suspended and the immobility time period of the mouse was observed and recorded over a period of 6 min. The last 4 min of immobility time period was recorded by a timer and was used for data analysis.
Excel software was used to collect data. Data were analyzed using Prism (Graphpad software, Inc.) software, in which variance between two groups was analyzed using the t-test method, and one-way ANOVA with additional Dunnett's multiple comparison test was performed among each animal group. p<0.05 is considered as having a significant difference.

In series [2] the test system is male C57BL/6J mice. Put plainly: Relieving a cough in mice, concentrated ammonia steam (Example 5). It is filed as in vivo. To be noted: 60 min. The method, then:
Ammonium Hydroxide, ACS Reagent, 28.0-30.0% NH3, AI LAN (Shanghai) Chemical Technology Co., Ltd., batch no. CEC1070004. Ultrasonic Nebulizer WH-2000, Guangdong Yuehua Medical Equipment Factory Co., Ltd.
88 male C57BL/6J mice, weighing 20-22 g, were purchased from Beijing Vital River Laboratory Animal Technology Co., Ltd.
Mice in each group were administered with 1 dose of the corresponding experimental drugs to be tested in a volume of 10 ml/kg. After 60 min of administration, the mice were placed in an inverted 600 ml beaker filled with concentrated ammonia saturated steam and immediately timed for 10 s, and then the mice were removed and placed in another inverted 600 ml beaker to observe the coughing of the mice and recorded the total coughs within 5 min.
All experimental data are expressed as means. Statistical analysis was carried out using Graphad Prism 5 software. One-way ANOVA test was used for comparison between groups. SNK was used for comparison between groups with equal variance. Dunnett's T3 was used for comparison between groups with unequal variance. P < 0.05 indicated statistical significance.

Series [3] can be described thus: Pharmacokinetic experiments in dogs. The conditions noted are these: 14 mg/kg single gavage, Day1, analyte deDM in plasma. The procedure:
Reagents: Sodium chloride injection, EDTA-K2, acetonitrile and formic acid were commercially available.
Instrument: AB SCIEX 5500 triple quadrupole mass spectrometer.
18 Beagle dogs, half male and half female, weighing 6 kg-10 kg, were purchased from Jiangsu Yadong Experimental Animal Research Institute Co., Ltd.
After single gavage administration in dogs, about 1 mL of blood was collected with a scalp needle from a vein in the forelimb or hindlimb at 0 min (before administration), 5 min, 15 min, 30 min, 1 h, 2 h, 4 h, 8 h and 24 h in a blood collection tube containing EDTA-K2 anticoagulant and then centrifuged at 4000 rpm for 10 min to separate the plasma which was stored at ≤- 65°C for testing.
The standard curve concentrations of dextromethorphan in plasma were 1 ng/mL, 2 ng/mL, 10 ng/mL, 50 ng/mL, 200 ng/mL, 400 ng/mL, 600 ng/mL and 1000 ng/mL and QC concentrations were 3 ng/mL, 30 ng/mL, 500 ng/mL and 800 ng/mL.

Where a name gives a salt, the structure may show the parent alone.

In general, Cmax refers to the peak of the concentration-time curve.

For the compound `CC(NC(C)(C)C)C(=O)c1cccc(Cl)c1` (stereo not drawn) [Bup, bupropion hydrochloride, reference compound], the Inhibition rate in series [1] (50 mg/kg oral) worked out at 56.00%^∗∗.
Turning to `CC(NC(C)(C)C)C(=O)c1cccc(Cl)c1` (stereo not drawn) [Bupropion, 1-(3-chlorophenyl)-2-[(1,1-dimethylethyl)amino]-1-propanone, reference compound], the Cough inhibition rate% in series [2] (30 mg/kg) is 9.1%.
On to `[2H]C([2H])([2H])Oc1ccc2c(c1)[C@]13CCCC[C@@H]1[C@H](C2)N(C([2H])([2H])[2H])CC3` [Deuterated dextromethorphan], for which the Cough inhibition rate% in series [2] (3 mg/kg) is 11.6%; in series [2] (12 mg/kg), 22.5%.
As for “deuterated dextromethorphan hydrobromide monohydrate [deDM]”, the AUClast in series [3] (Female) was 153 h^∗ng/ml; in series [3] (Male) it was 383 h^∗ng/ml. Besides, the Cmax in series [3] (Female) is 60 ng/mL; in series [3] (Male), 157 ng/mL. For the same compound, the Inhibition rate in series [1] (10 mg/kg oral) was 5.0%; in series [1] (12 mg/kg oral) it was 2.1%; in series [1] (15 mg/kg oral), 5.9%; in series [1] (18 mg/kg oral), 4.1%.

For the origin of these results see patent publication EP4183391A1, “PHARMACEUTICAL COMPOSITION AND USE THEREOF” (Shenzhen Salubris Pharmaceuticals Co., Ltd., priority 2020, dated 2022).
